Target: human mGluR4 (Homo sapiens (Human), UniProt Q14833)
Assay: mGluR4 potentiation assay, CHO cells transfected with human mGluR4, Ca2+-sensitive dye, EC20 agonist
Type: cell-based
Conditions: potentiation of mGluR4
Description: The disclosed compounds and compositions can be evaluated for their ability to act as a potentiator of metabotropic glutamate receptor activity, in particular mGluR4 activity, by any suitable known methodology known in the art. For example, Chinese Hamster Ovary (CHO) cells transfected with human mGluR4 or HEK cells co-transfected with rat mGluR4 and the G-protein regulated Inwardly Rectifying Potassium channel (GIRK) were plated in clear bottom assay plates for assay in a Hamamatsu FDSS Fluorometric Plate Reader. The cells were loaded with either a Ca2+-sensitive fluorescent dye or the thallium responsive dye and the plates were washed and placed into a suitable kinetic plate reader. For human mGluR4 assays, a fluorescence baseline was established for 3-5 seconds, the disclosed compounds were then added to the cells, and the response in cells was measured. Approximately two and a half minutes later, a concentration of mGluR4 orthosteric agonist (e.g. glutamate or L-AP4) eliciting approximately 20% (EC20) of the maximal agonist response was added to the cells, and the response was measured. Two minutes later, a concentration of mGluR4 agonist (e.g. glutamate or L-AP4) eliciting 80% (EC80) of the maximal agonist response was added to the cells, and the response was measured. For rat mGluR4/GIRK experiments, a baseline was established for approximately five seconds, disclosed compounds were added, and either an EC20 or EC80 concentration of agonist was added approximately two and one half minutes later. Potentiation of the agonist response of mGluR4 by the disclosed compounds was observed as an increase in response to the EC20 concentration of agonist in the presence of compound compared to the response to agonist in the absence of compound. Similarly, antagonism of the agonist response of mGluR4 by the disclosed compounds was observed as a decrease in response to the EC80 concentration of agonist in the presence of compound compared to the response to agonist in the absence of compound.
The above described assay operated in two modes. In the first mode, a range of concentrations of the disclosed compounds are added to cells, followed by a single fixed concentration of agonist. If the compound acts as a potentiatior, an EC50 value for potentiation and a maximum extent of potentiation by the compound at this concentration of agonist is determined by non-linear curve fitting. If the compound acts as a noncompetitive antagonist, an IC50 value is determined by non-linear curve fitting. In the second mode, several fixed concentrations of the disclosed compounds are added to various wells on a plate, followed by a range in concentrations of agonist for each concentration of disclosed compound. The EC50 values for the agonist at each concentration of compound are determined by non-linear curve fitting. A decrease in the EC50 value of the agonist with increasing concentrations of the sample compound (a leftward shift of the agonist concentration-response curve) is an indication of the degree of mGluR4 potentiation at a given concentration of the sample compound. A decrease in the maximal response of the agonist with increasing concentrations of the sample compounds, with or without a rightward shift in agonist potency, is an indication of the degree of noncompetitive antagonism at mGluR4. The second mode also indicates whether the sample compounds also affect the maximum response to mGluR4 to agonists.

[1] = main compound table, species not given
[2] = summary list repeated at the end of the table, species not stated

human mGluR4, sequence (Q14833 33-912): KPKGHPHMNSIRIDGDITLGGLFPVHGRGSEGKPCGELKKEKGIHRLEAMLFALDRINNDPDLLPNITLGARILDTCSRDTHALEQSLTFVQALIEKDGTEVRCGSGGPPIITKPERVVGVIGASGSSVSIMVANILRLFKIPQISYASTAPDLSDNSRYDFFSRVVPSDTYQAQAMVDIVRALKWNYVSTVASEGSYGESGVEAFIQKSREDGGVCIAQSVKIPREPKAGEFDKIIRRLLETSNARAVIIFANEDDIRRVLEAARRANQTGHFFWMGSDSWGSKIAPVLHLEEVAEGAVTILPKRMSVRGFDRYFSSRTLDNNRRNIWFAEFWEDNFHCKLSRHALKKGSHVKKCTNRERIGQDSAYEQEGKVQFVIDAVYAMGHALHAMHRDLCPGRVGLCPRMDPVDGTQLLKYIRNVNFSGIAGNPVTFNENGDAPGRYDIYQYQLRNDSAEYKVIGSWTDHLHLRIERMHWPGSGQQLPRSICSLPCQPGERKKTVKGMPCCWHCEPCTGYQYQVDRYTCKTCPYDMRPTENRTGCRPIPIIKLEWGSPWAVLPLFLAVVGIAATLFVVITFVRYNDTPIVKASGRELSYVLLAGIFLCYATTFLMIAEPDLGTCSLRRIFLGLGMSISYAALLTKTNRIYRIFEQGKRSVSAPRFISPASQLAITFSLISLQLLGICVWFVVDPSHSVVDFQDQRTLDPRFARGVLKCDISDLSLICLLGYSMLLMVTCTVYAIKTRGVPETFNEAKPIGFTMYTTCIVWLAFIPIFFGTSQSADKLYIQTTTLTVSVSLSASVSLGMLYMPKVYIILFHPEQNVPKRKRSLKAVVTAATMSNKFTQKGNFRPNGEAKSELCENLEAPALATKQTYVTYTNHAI

SMILES	EC50 [1] [nM]	EC50 [2] [nM]
O=C(NC1CC(F)(F)C1)c1nsc2cc(Nc3n[nH]c4cccnc34)ccc12 [Example 4, 6-((1H-pyrazolo[4,3-b]pyridin-3-yl)amino)-N-(3,3-difluorocyclobutyl)benzo[d] isothiazole-3-carboxamide]	32	32
O=C(c1nsc2cc(Nc3n[nH]c4cccnc34)ccc12)N1CCSCC1 [Example 16, (6-((1H-pyrazolo [4,3-b]pyridin-3-yl)amino)benzo[d]isothiazol-3-yl)(thiomorpholino) methanone]	85	85
O=C(NC1CC(F)(F)C1)c1nsc2cc(Nc3n[nH]c4nccnc34)ccc12 [Example 30, 6-((1H-pyrazolo[3,4-b]pyrazin-3-yl)amino)-N-(3,3-difluorocyclobutyl) benzo[d] isothiazole-3-carboxamide]	42.6	42.6
CCCc1nsc2cc(Nc3n[nH]c4cccnc34)ccc12 [Example 23, 3-propyl-N-(1H-pyrazolo [4,3-b]pyridin-3-yl)benzo[d]isothiazol-6-amine]	56	56
Cc1nsc2ccc(Nc3n[nH]c4cccnc34)cc12 [Example 1, 3-methyl-N-(1H-pyrazolo[4,3-b]pyridin-3-yl)benzo[d]isothiazol-5-amine]	187	187
CCCc1nsc2cc(Nc3n[nH]c4nccnc34)ccc12 [Example 24, 3-propyl-N-(1H-pyrazolo[3,4-b]pyrazine-3-yl)benzo[d]isothiazol-6-amine]	23.4	23.4
CN1CCN(C(=O)c2nsc3cc(Nc4n[nH]c5cccnc45)ccc23)CC1 [Example 12, (6-((1H-pyrazolo [4,3-b]pyridin-3-yl)amino)benzo[d]isothiazol-3-yl)(4-methylpiperazin-1-yl) methanone]	1140	1140
CC1CN(C(=O)c2nsc3cc(Nc4n[nH]c5cccnc45)ccc23)CC(C)O1 (stereo not drawn) [Example 7, (6-((1H-pyrazolo [4,3-b]pyridin-3-yl)amino)benzo[d]isothiazol-3-yl) (2,6-dimethyl-morpholino) methanone]	306	306
CC1CC(C)CN(C(=O)c2nsc3cc(Nc4n[nH]c5cccnc45)ccc23)C1 (stereo not drawn) [Example 18, (6-((1H-pyrazolo [4,3-b]pyridin-3-yl)amino)benzo[d]isothiazol-3-yl)(3,5-dimethylpiperidin-1-yl) methanone]	517	517
CCC(C)c1nsc2cc(Nc3n[nH]c4cccnc34)cnc12 (stereo not drawn) [Example 40, 3-(sec-butyl)-N-(1H-pyrazolo[4,3-b]pyridin-3-yl)isothiazolo[4,5-b] pyridin-6-amine]	54.2	54.2
CC(C)(O)c1nsc2cc(Nc3n[nH]c4cccnc34)ccc12 [Example 38, 2-(6-((1H-pyrazolo [4,3-b]pyridin-3-yl)amino)benzo[d]isothiazol-3-yl)propan-2-ol]	1030	1030
c1cnc2c(Nc3ccc4c(C5CC5)nsc4c3)n[nH]c2n1 [Example 37, 3-cyclopropyl-N-(1H-pyrazolo [3,4-b]pyrazin-3-yl)benzo [d]isothiazol-6-amine]	61.1	61.1
c1cnc2c(Nc3ccc4c(C5CC5)nsc4c3)n[nH]c2c1 [Example 36, 3-cyclopropyl-N-(1H-pyrazolo [4,3-b]pyridin-3-yl) benzo[d]isothiazol-6-amine]	78.2	78.2
O=C(c1nsc2cc(Nc3n[nH]c4cccnc34)ccc12)N1CCOCC1 [Example 6, (6-((1H-pyrazolo [4,3-b]pyridin-3-yl)amino)benzo[d]isothiazol-3-yl)(morpholino) methanone]	303	303
O=C(C1CCOCC1)N1CCC(c2nsc3cc(Nc4n[nH]c5cccnc45)ccc23)CC1 [Example 72, (4-(6-((1H-pyrazolo [4,3-b]pyridin-3-yl)amino)benzo[d]isothiazol-3-yl)piperidin-1-yl) (tetrahydro-2H-pyran-4-yl)methanone]	1200	1200
O=C(c1nsc2cc(Nc3n[nH]c4cccnc34)ccc12)N1CCN2CCCC2C1 (stereo not drawn) [Example 13, (6-((1H-pyrazolo [4,3-b]pyridin-3-yl)amino)benzo[d]isothiazol-3-yl)(hexahydropyrrolo [1,2-a]pyrazin-2(1H)-yl)methanone]	1610	1610
CC(=O)N1CCC(c2nsc3cc(Nc4n[nH]c5cccnc45)ccc23)CC1 [Example 35, 1-(4-(6-((1H-pyrazolo[4,3-b]pyridin-3-yl)amino)benzo[d]isothiazol-3-yl)piperidin-1-yl)ethan-1-one]	199	199
O=C(c1nsc2cc(Nc3n[nH]c4cccnc34)ccc12)N1CCC(F)(F)C1 [Example 3, (6-((1H-pyrazolo [4,3-b]pyridin-3-yl)amino)benzo[d]isothiazol-3-yl) (3,3-difluoropyrrolidin-1-yl) methanone]	325	325

Next, values leading:

EC50 [1] [nM]	EC50 [2] [nM]	SMILES
334	334	CN(Cc1nsc2cc(Nc3n[nH]c4cccnc34)cnc12)C1CC(F)(F)C1 [Example 52, 3-(((3,3-difluoro-cyclobutyl) (methyl)amino)methyl)-N-(1H-pyrazolo[4,3-b]pyridin-3-yl)isothiazolo[4,5-b] pyridin-6-amine]
99.5	99.5	CC(C)(C)Cc1nsc2cc(Nc3n[nH]c4nccnc34)cnc12 [Example 27, 3-neopentyl-N-(1H-pyrazolo[3,4-b]pyrazin-3-yl) isothiazole[4,5-b] pyridin-6-amine]
119	119	CC(C)(C)Cc1nsc2cc(Nc3n[nH]c4ncccc34)cnc12 [Example 28, 3-neopentyl-N-(1H-pyrazolo[3,4-b]pyridin-3-yl) isothiazolo[4,5-b] pyridin-6-amine]
157	157	Cc1nsc2cc(Nc3n[nH]c4cccnc34)cnc12 [Example 39, 3-methyl-N-(1H-pyrazolo [4,3-b]pyridin-3-yl)isothiazolo[4,5-b] pyridin-6-amine]
3740	3740	c1cnc2c(Nc3cnc4c(CN5CCCC5)nsc4c3)n[nH]c2c1 [Example 58, N-(1H-pyrazolo[4,3-b]pyridin-3-yl)-3-(pyrrolidin-1-ylmethyl) isothiazolo [4,5-b]pyridin-6-amine]
101	101	FC1(F)CCCN(Cc2nsc3cc(Nc4n[nH]c5ncccc45)cnc23)C1 [Example 62, 3-((3,3-difluoropiperidin-1-yl)methyl)-N-(1H-pyrazolo[3,4-b]pyridin-3-yl)isothiazolo[4,5-b] pyridin-6-amine]
884	884	CC(C)(C)Cc1nsc2cc(Nc3n[nH]c4ncccc34)ccc12 [Example 22, 3-neopentyl-N-(1H-pyrazolo[3,4-b]pyridin-3-yl)benzo[d] isothiazol-6-amine]
147	147	CC1(C)CN(Cc2nsc3cc(Nc4n[nH]c5cccnc45)cnc23)CCO1 [Example 60]
1340	1340	O=C(c1nsc2cc(Nc3n[nH]c4cccnc34)ccc12)N1CCCC1 [Example 10, (6-((1H-pyrazolo [4,3-b]pyridin-3-yl)amino)benzo[d]isothiazol-3-yl) (pyrrolidin-1-yl) methanone]
1560	1560	c1cnc2[nH]nc(Nc3cnc4c(CN5CCCCC5)nsc4c3)c2c1 [Example 49, 3-(piperidin-1-ylmethyl)-N-(1H-pyrazolo[3,4-b]pyridin-3-yl)isothiazolo[4,5-b] pyridin-6-amine]
38.3	38.3	CCc1nsc2cc(Nc3n[nH]c4cccnc34)cnc12 [Example 41, 3-ethyl-N-(1H-pyrazolo[4,3-b]pyridin-3-yl)isothiazolo [4,5-b]pyridin-6-amine]
1030	1030	c1cnc2[nH]nc(Nc3cnc4c(CN5CCOCC5)nsc4c3)c2c1 [Example 55, 3-(morpholinomethyl)-N-(1H-pyrazolo[3,4-b]pyridin-3-yl)isothiazolo[4,5-b] pyridin-6-amine]

Source: US10221172B2, “Benzothiazole and benzisothiazole-substituted compounds as mGluR4 allosteric potentiators, compositions, and methods of treating neurological dysfunction” (Vanderbilt University, priority 2015, dated 2019)
